Experimental data reported in patent US20250059141A1, “TLR MODULATOR AND USE THEREOF” (DUALITY BIOLOGICS (SUZHOU) CO., LTD., priority 2021, published 2025).
Where two headings read alike, the source gives them in different places.

Experiments:
[1] = biological target: T1, hTLR8 (human Toll-like receptor 8) (Homo sapiens, UniProt Q9NR97); assay: HEK-Blue hTLR8 reporter assay (QUANTI-Blue, OD650); format: cell-based; details: HEK-Blue hTLR8 cells, 24 h, read-out: Reporter assay TLR8 EC50
T1 construct: host or cells: HEK-Blue hTLR8 (HEK293-derived reporter cells)
T1 sequence (Q9NR97 27-1041): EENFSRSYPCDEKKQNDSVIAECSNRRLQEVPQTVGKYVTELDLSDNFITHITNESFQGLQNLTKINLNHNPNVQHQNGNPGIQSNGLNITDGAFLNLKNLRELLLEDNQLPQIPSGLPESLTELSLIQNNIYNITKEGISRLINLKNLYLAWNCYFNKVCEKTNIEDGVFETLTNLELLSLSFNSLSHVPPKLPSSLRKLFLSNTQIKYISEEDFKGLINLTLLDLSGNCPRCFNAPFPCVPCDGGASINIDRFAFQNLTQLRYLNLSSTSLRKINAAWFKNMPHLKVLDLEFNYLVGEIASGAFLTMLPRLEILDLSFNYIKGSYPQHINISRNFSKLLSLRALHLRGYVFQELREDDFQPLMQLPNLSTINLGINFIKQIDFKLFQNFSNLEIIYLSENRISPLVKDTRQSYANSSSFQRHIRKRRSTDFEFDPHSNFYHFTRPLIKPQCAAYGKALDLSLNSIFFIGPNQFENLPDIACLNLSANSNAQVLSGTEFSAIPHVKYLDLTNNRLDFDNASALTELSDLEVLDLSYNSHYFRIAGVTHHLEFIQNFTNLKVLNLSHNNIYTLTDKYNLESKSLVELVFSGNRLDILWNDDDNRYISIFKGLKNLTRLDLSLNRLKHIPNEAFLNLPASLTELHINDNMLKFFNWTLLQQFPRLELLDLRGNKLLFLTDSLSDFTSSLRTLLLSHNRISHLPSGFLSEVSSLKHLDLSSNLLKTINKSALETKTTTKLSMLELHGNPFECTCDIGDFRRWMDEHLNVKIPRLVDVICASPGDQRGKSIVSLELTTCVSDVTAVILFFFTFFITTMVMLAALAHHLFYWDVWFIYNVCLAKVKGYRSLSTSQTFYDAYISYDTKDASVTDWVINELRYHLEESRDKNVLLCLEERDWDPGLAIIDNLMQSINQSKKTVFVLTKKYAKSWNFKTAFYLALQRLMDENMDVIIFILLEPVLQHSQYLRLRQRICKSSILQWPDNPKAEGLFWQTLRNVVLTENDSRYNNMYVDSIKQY
Protocol: In this example, the agonistic activity of the compounds of the present application on hTLR7 (human Toll-like receptor 7) and hTLR8 (human Toll-like receptor 8) was assessed; the induction activity of the compounds on human PBMCs for TNF-α and IFN-α production was assessed in human PBMCs (human peripheral blood mononuclear cells).
All compounds were formulated in DMSO into 30 mM stock solutions and preserved at 4° C. The reference compound ([…], Cat. No. tlrl-r848-5) was purchased from InvivoGen and formulated into a 5 mg/mL stock solution in DMSO and preserved in a freezer at −20° C. HEK-Blue hTLR7 and HEK-Blue hTLR8 cell lines were purchased from InvivoGen, and human PBMCs were purchased from Shanghai Saily Biotechnology Co., Ltd. (Cat. No. XFB—HP100B).
The major instruments used in this study were multifunctional microplate reader Flexstation III (Molecular Device), Envision (Perkin Elmer), M2e (Molecular Device), and Echo555 (Labcyte). 2.1 Agonistic activity of compounds on hTLR7 (human Toll-like receptor 7) and hTLR8 (human Toll-like receptor 8)
Compound dilution: The compounds of the present application are diluted in DMSO, for example, to about 15 mM. The reference compound was added to the plates in sequence after dilution. The compounds were serially 3-fold diluted to 10 concentrations and added to 96-well plates in duplicate.
For the negative control wells, DMSO was added at 0.2 μL/well, and the reference compound was added to the positive control wells. The final concentration of DMSO was 0.2%.
Cell plating: When an 80% confluence of HEK Blue hTLR7&8 cells in the culture flask was observed under a microscope, the culture medium was discarded, 10 mL of detection medium was added, and the cells were separated by pipetting. The cells were counted on a cytometer and diluted to 500,000 cells/mL. The cells were plated at 100 μL/50,000 cells/well in the 96-well plates containing the compounds. The compounds and cells were co-incubated at 37° C. in a 5% CO2 incubator for 24 hours.
Compound activity detection: 20 μL of cell supernatant was taken from each well and added to a plate containing QUANTI-Blue™ reagent at 180 μL/well. The plate was incubated at 37° C. for 1 hour, and the absorbance at 650 nm (OD650) was measured on the multifunctional microplate reader Flexstation III.
Compound activity data analysis: The OD650 values were analyzed by GraphPad Prism software and fitted to give dose-response curves of the compounds. The EC50 values of compounds were calculated.

[2] = system: IFN-α production in human PBMCs; assay: Induction of IFN-α in human PBMCs (ELISA); format: cell-based; details: PBMC, 24 h, read-out: PBMC assay IFNa EC50
Protocol: In this example, the induction activity of the compounds of the present application on human PBMCs for TNF-α and IFN-α production was assessed in human PBMCs (human peripheral blood mononuclear cells). The human PBMCs were purchased from Shanghai Saily Biotechnology Co., Ltd. (Cat. No. XFB—HP100B). PBMC cells were treated with the compounds. The compounds of the present application are diluted in DMSO, for example, to about 15 mM. The reference compound was added to the plates in sequence after diluted to 5 mg/mL. The compounds were serially 3- or 4-fold diluted to 8 concentrations and added to plates in duplicate (Table 2-1 for serial 3-fold dilutions and Table 2-2 for serial 4-fold dilutions). For the negative control wells, DMSO was added at 0.4 μL/well, and a 5 mg/mL reference compound solution was added to the positive control wells at 0.4 μL/well. The final concentration of DMSO was 0.2%. Frozen human PBMCs in cryopreservation tubes were quickly thawed in a 37° C. water bath and transferred into 50-mL centrifuge tubes. Prewarmed RPMI1640 medium was gradually added and the mixture was well mixed and centrifuged for 15 min before the supernatant was discarded. The cells were resuspended in a culture medium and counted. The cell suspension was adjusted to 2.5×10^6 cells/mL with the culture medium. Diluted cells were added at 200 μL/500,000 cells/well in 96-well plates containing the compounds. The cell plates were incubated at 37° C./5% CO2 for 24 h.
The plate was washed 4 times, then the detection antibody was added. […] The plate was washed 4 additional times, then the enzyme was added. […] Termination of reaction: The reaction was terminated by quickly adding the stop solution at 100 μL/well. Plate reading: The reading at wavelength 450 nm was detected by an M2e instrument within 10 min after the termination.
Compound activity data analysis: The OD450 values were converted to TNF-α and IFN-α contents by GraphPad Prism software analysis and fitted to give dose-response curves of the compounds. The EC50 values for the compounds were calculated, where the Emax values are the maximal values for TNF-α and IFN-α.

[3] = serial 4-fold dilutions, class symbols

| SMILES | EC50 ([1]; class symbols) [nM] | EC50 [2, 3] [nM] | EC50 [1] [nM] | EC50 ([2]; serial 3-fold dilutions) [nM] |
| --- | --- | --- | --- | --- |
| CCCN(OCc1ccc(N)cc1)C(=O)C1=Cc2ccc(-c3cccc(S(=O)(=O)N4CCC(O)CC4)c3)cc2N=C(N)C1 [Compound 66] | ≤ 10 | 50 to 500 |  |  |
| CCCN(OCc1ccc(N)cc1)C(=O)C1=Cc2ccc(-c3cncc(CO)c3)cc2N=C(N)C1 [Compound 15] |  |  | < 1.5 | 3.02 |
| CCCN(OCc1ccc(N)cc1)C(=O)C1=Cc2ccc(C(=O)Nc3ccn(C)n3)cc2N=C(N)C1 [Compound 88] | ≤ 10 | 50 to 500 |  |  |
| CCCN(OCc1ccc(N)cc1)C(=O)C1=Cc2ccc(C(=O)NC3COC3)cc2N=C(N)C1 [Compound 81] | 10 to 100 | 10 to 50 |  |  |
| CCCN(OCc1ccc(N)cc1)C(=O)C1=Cc2ccc(-c3cncc(S(N)(=O)=O)c3)cc2N=C(N)C1 [Compound 36] |  |  | 1.71 | 6.05 |
| CCCN(OCc1ccc(N)cc1)C(=O)C1=Cc2ccc(C(=O)N3CCOC(CO)C3)cc2N=C(N)C1 (stereo not drawn) [Compound 47] | 10 to 100 | 50 to 500 |  |  |
| CCCN(OCc1ccc(N)cc1)C(=O)C1=Cc2ccc(C(=O)Nc3ccc4cn[nH]c4c3)cc2N=C(N)C1 [Compound 89] | 10 to 100 | 50 to 500 |  |  |
| CCCN(OCc1ccc(N)cc1)C(=O)C1=Cc2ccc(-c3cccc(S(=O)(=O)NCCO)c3)cc2N=C(N)C1 [Compound 64] | ≤ 10 | 10 to 50 |  |  |
| CCCN(OCc1ccc(N)cc1)C(=O)C1=Cc2ccc(C(=O)NC3CCCCC3)cc2N=C(N)C1 [Compound 82] | ≤ 10 | 50 to 500 |  |  |
| CCCN(OCc1ccc(N)cc1)C(=O)C1=Cc2ccc(C(=O)NCCO)cc2N=C(N)C1 [Compound 48] | 10 to 100 | > 500 |  |  |
| CCCN(OCc1ccc(N)cc1)C(=O)C1=Cc2ccc(-c3ccc(N4CCOCC4)nc3)cc2N=C(N)C1 [Compound 55] |  |  | 2.3 | 43.4 |
| CCCN(OCc1ccc(N)cc1)C(=O)C1=Cc2ccc(-c3cncc(CO)c3)nc2N=C(N)C1 [Compound 62] | ≤ 10 | ≤ 10 |  |  |
| CCCN(OCc1ccc(N)cc1)C(=O)C1=Cc2ccc(C(=O)N3CC(Oc4ccccc4)C3)cc2N=C(N)C1 [Compound 94] | ≤ 10 | 50 to 500 |  |  |
| CCCN(OCc1ccc(N)cc1)C(=O)C1=Cc2ccc(C(=O)N3CC4(COC4)C3)cc2N=C(N)C1 [Compound 95] | ≤ 10 | 50 to 500 |  |  |
| CCCN(OCc1ccc(N)cc1)C(=O)C1=Cc2ccc(-c3cncc(N)c3)cc2N=C(N)C1 [Compound 52] |  |  | 4.4 | 6.58 |
| NC1=Nc2cc(-c3cncc(CO)c3)ccc2C=C(C(=O)N(CC2CC2)OCc2ccc(N)cc2)C1 [Compound 45] |  |  | 2.3 | 7.25 |

| SMILES | EC50 ([1]; class symbols) [nM] | EC50 [2, 3] [nM] | EC50 [1] [nM] | EC50 ([2]; serial 3-fold dilutions) [nM] |
| --- | --- | --- | --- | --- |
| CCCN(OCc1ccc(N)cc1)C(=O)C1=Cc2ccc(C(=O)Nc3cncc(OC)c3)cc2N=C(N)C1 [Compound 85] | ≤ 10 | 50 to 500 |  |  |
| CCCN(OCc1ccc(N)cc1)C(=O)C1=Cc2ccc(C(=O)N3CCN(C)CC3)cc2N=C(N)C1 [Compound 93] | ≤ 10 | 50 to 500 |  |  |
| CCCN(OCc1ccc(N)cc1)C(=O)C1=Cc2ccc(C(=O)Nc3ccc4c(c3)CNC4)cc2N=C(N)C1 [Compound 90] | ≤ 10 | 50 to 500 |  |  |
| CCCN(OCc1ccc(N)cc1)C(=O)C1=Cc2ccc(-c3ccc(C#N)nc3)cc2N=C(N)C1 [Compound 51] |  |  | 5.6 | 142 |
| CCCN(OCc1ccc(N)cc1)C(=O)C1=Cc2ccc(-c3ccc4c(c3)C(=O)OC4)cc2N=C(N)C1 [Compound 43] |  |  | < 1.5 | 29.6 |
| CCCN(OCc1ccc(N)cc1)C(=O)C1=Cc2ccc(-c3cncc(C#N)c3)cc2N=C(N)C1 [Compound 50] |  |  | 1.5 | 41.5 |
| CCCN(OCc1ccc(N)cc1)C(=O)C1=Cc2ccc(-c3cccc(S(=O)(=O)N4CC(O)C4)c3)cc2N=C(N)C1 [Compound 41] |  | 50 to 500 | 5.37 | 31.1 |
| CCCN(OCc1ccc(N)cc1)C(=O)C1=Cc2ccc(C(=O)NC3CCOCC3)cc2N=C(N)C1 [Compound 84] | 10 to 100 | 50 to 500 |  |  |
| NC1=Nc2cc(-c3cncc(CO)c3)ccc2C=C(C(=O)N(CCC(F)(F)F)OCc2ccc(N)cc2)C1 [Compound 58] | ≤ 10 | 10 to 50 |  |  |
| CCCN(OCc1ccc(N)cc1)C(=O)C1=Cc2ccc(C(=O)N3CCC(O)C3)cc2N=C(N)C1 (stereo not drawn) [Compound 46] | 10 to 100 | 50 to 500 |  |  |
| CCCN(OCc1ccc(N)cc1)C(=O)C1=Cc2ccc(C(=O)Nc3cccnc3)cc2N=C(N)C1 [Compound 40] |  |  | 2.5 | 1320 |
| CCCN(OCc1ccc(N)cc1)C(=O)C1=Cc2ccc(C(=O)N[C@H]3C[C@@H]3c3ccccc3)cc2N=C(N)C1 [Compound 78] | ≤ 10 | ≤ 10 |  |  |
| CCCN(OCc1ccc(N)cc1)C(=O)C1=Cc2ccc(-c3cncc(S(=O)(=O)N4CC[C@H](O)C4)c3)cc2N=C(N)C1 [Compound 72] | ≤ 10 | 10 to 50 |  |  |
| CCCN(OCc1ccc(N)cc1)C(=O)C1=Cc2ccc(-c3cncc(Cl)c3)cc2N=C(N)C1 [Compound 49] |  |  | 6.6 | 48.2 |
| CCCN(OCc1ccc(N)cc1)C(=O)C1=Cc2ccc(-c3cncc(C(F)(F)F)c3)cc2N=C(N)C1 [Compound 53] | 10 to 100 | 50 to 500 |  |  |
